According to patent publication US20020155479A1, “Expression cloning method” (Whitehead Institute for Biomedical Research, priority 1999, published 2002):

What was measured:
[1] = test system: GLUT4 at the plasma membrane of 3T3-L1 cells; assay: FACS-based assay of the proportion of GLUT4 reporter at the cell surface, 3T3-L1 cells; parameters: species or system murine
Experimental: (§1) Confluent cells were reseeded on the indicated day of differentiation to six well plates (Coming, Costar #3506) one day before use in experiments, and were starved in DMEM without fetal bovine serum for at least 3 hours before insulin stimulation. Insulin was generally used at 160 nM; occasionally it was used at 80 nM or 200 nM and no difference was noted between these concentrations in either 3T3-L1 or CHO cells. Insulin was added directly to the wells from a 100×stock. After treatment in the presence or absence of insulin for the times indicated in each figure, cells were quickly transferred to […] and washed with cold phosphate buffered saline (PBS) containing 0.9 mM Ca^++ and 0.5 mM Mg^++ (PBS++). All subsequent steps were carried out at 4° C., and staining of externalized myc epitope was done on adherent cells. Cells were incubated with a 1:200 dilution of anti-myc (9E10) ascites or using 25 μg/ml purified 9E10 in PBS++, 2% bovine serum albumin (BSA), 4% donkey serum for 1.5 hours. Cells were then washed twice in PBS++, for 5 minutes each time. They were then incubated 45 minutes in 12.5 to 25 μg/ml R-phycoerythrin conjugated donkey F(ab′)2 anti-mouse IgG secondary antibody, diluted in PBS++, 2% BSA, 4% donkey serum. Cells were rinsed twice in PBS++, then washed three times in PBS++ for 10 minutes each time, and were resuspended by gentle scraping in PBS++, 2% BSA or PBS++, 5% fetal bovine serum for flow cytometry. For experiments involving insulin removal, cells were chilled as above after insulin stimulation, then washed twice with 5 mM sodium acetate, 150 mM NaCl, pH 4.0 (Kao, A. W., et al., 1998, J Biol Chem 273:25450-7; Yang., J., et al., 1992, J Biol Chem 267:10393-9). Cells were rewarmed in 37° C. DMEM for the times indicated, restimulated or not with insulin, and then returned to 4° C. and chilled with cold PBS++ before staining as above.
(§2) Flow cytometry was done on FACScan or FACSCalibur cytometers (Becton-Dickinson). Appropriate compensation between the FL1 and FL2 channels was set using uninfected (GFP-negative) cells or cells stained with PE only (e.g. using a PE-conjugated anti-transferrin receptor antibody; Pharmingen). […] For each sample, data from ≧10,000 cells were collected. Median fluorescence intensities were used for quantification, since this measure of central tendency is least sensitive to outliers. For each sample, the PE and GFP fluorescence specifically attributable to the presence of the GLUT4 reporter were determined by subtracting background fluorescences, measured using control unstained cells and cells not expressing the reporter, respectively. These control cells were treated with the same conditions (e.g., type of serum and media, amino acid concentrations) used for the experimental cells. The ratio of fluorescence intensities plotted on the vertical axes of many figures is a relative, not absolute, measure of the proportion of GLUT4 at the cell surface. The scales are numbered arbitrarily and are not intended to permit comparison in absolute terms of data obtained in different experiments. In some of the kinetic studies (FIG. 26), the data were subjected to a simple smoothing operation. This consisted of calculating (0.25ra1—0.5rc+0.25rc+1), where r is the ratio of specific fluorescences for timepoint t. This calculated value was used for timepoints t=2 to ten−1, where n is the total number of timepoints. For the last time point t=n, (0.33rc1+0.67r1) was calculated. Basal values of r (r1) were unchanged.
To assay changes in the proportion of GLUT4 present at the plasma membrane, a cDNA encoding a GLUT4 reporter protein was constructed. This protein contains seven c-myc epitope tags in the first exofacial loop of GLUT4, and GFP fused in-frame at the carboxy terminus. […] An anti-myc monoclonal antibody, followed by a phencoerythrin (PE)-conjugated secondary antibody, was used to detect reporter protein present at the surface of living cells. […]

[2] = test system: GLUT4 at the plasma membrane of CHO cells; assay: FACS-based assay of the proportion of GLUT4 reporter at the cell surface, CHO cells; parameters: species or system Chinese Hamster
Experimental: as §1, §2
To measure GLUT4 trafficking at the surface of CHO cells, CHO cells expressing the murine ecotropic retroviral receptor were infected with a retrovirus carrying the GLUT4 reporter, and FACS was utilized to isolate cells falling within a narrow range of GFP fluorescence intensities. Upon insulin stimulation of these cells, externalization of the GLUT4 reporter was again noted, as detected by flow cytometry. […]

[3] = test system: GLUT4 at the cell surface of NIH 3T3 cells; assay: FACS-based assay of the proportion of GLUT4 reporter at the cell surface, NIH 3T3 cells; settings: NIH 3T3 cells expressing the GLUT4 reporter
Experimental: Confluent cells were reseeded on the indicated day of differentiation to six well plates (Coming, Costar #3506) one day before use in experiments, and were starved in DMEM without fetal bovine serum for at least 3 hours before insulin stimulation. Insulin was generally used at 160 nM; occasionally it was used at 80 nM or 200 nM and no difference was noted between these concentrations in either 3T3-L1 or CHO cells. Insulin was added directly to the wells from a 100×stock. […]
Flow cytometry was done on FACScan or FACSCalibur cytometers (Becton-Dickinson). […] Median fluorescence intensities were used for quantification, since this measure of central tendency is least sensitive to outliers. For each sample, the PE and GFP fluorescence specifically attributable to the presence of the GLUT4 reporter were determined by subtracting background fluorescences, measured using control unstained cells and cells not expressing the reporter, respectively. […] The ratio of fluorescence intensities plotted on the vertical axes of many figures is a relative, not absolute, measure of the proportion of GLUT4 at the cell surface. […] This consisted of calculating (0.25ra1—0.5rc+0.25rc+1), where r is the ratio of specific fluorescences for timepoint t. This calculated value was used for timepoints t=2 to ten−1, where n is the total number of timepoints. For the last time point t=n, (0.33rc1+0.67r1) was calculated. […]

[4] = test system: GLUT4 in the plasma membrane fraction of 3T3-L1 cells; assay: Subcellular fractionation and immunoblotting of GLUT4 in plasma membrane fraction, 3T3-L1 cells; type: cell-based, murine
Excerpt: Four 10 cm plates of 3T3-L1 adipocytes were used per condition to isolate low density microsomal and plasma membrane fractions for FIG. 17B. Eight and ten plates per condition were used to isolate low density microsomes for analysis by sucrose density gradient centrifugation (FIG. 17C) and in vesicle immunopurification experiments (FIG. 17D), respectively. Five plates of adipocytes and ten plates of preadipocytes were used per condition in experiments presented in FIGS. 19B and 20B, respectively. For experiments presented in FIGS. 17B and 17D cells were serum starved overnight, treated with the presence or absence of insulin (160 nM, 10 min.), then transferred to 4° C. and washed with cold PBS++. For the vesicle immunopurification (FIG. 17D) cells were starved overnight, then transferred to 4° C. and washed with cold PBS++ without insulin stimulation. For kinetic studies (FIGS. 19B), 480 nM insulin was used (added from a prewarmed 3×stock) in order to maximally and simultaneously stimulate all of the cells on each 10 cm dish. Cell were transferred to 4° C. and washed with cold PBS++ at the indicated times. In all cases, cells were next washed once with cold 250 mM sucrose, 10 mM Tris pH 7.4, 0.5 mM EDTA (Buffer A). Cells were resuspended by scraping in cold Buffer A with Complete protease inhibitors (Roche), then homogenized using 16 strokes (4 plates) or 25 strokes (8 plates) in a Dounce-type teflon tissue grinder (Kontes #22, VWR). All subsequent steps were performed at 4° C. […]
The supernatant from the initial centrifugation was recentrifuged at 19,000 rpm in an SS-34 rotor (43,000×g) for 30 minutes. […] Equal volumes of each fraction were analyzed by SDS-PAGE and immunoblotting, and the total protein content in each fraction was determined using the micro-BCA kit (Pierce). In experiments where LDM and PM fractions were analyzed directly (without sedimentation of the LDM), total protein content was first determined and then equal amounts of protein were analyzed by SDS-PAGE and immunoblotting.

[5] = test system: GLUT4 reporter in AML12 hepatocyte cell line; assay: GLUT4 reporter translocation in AML12 hepatocyte cell line; type: cell-based; settings: AML12 cells; data not shown
[6] = test system: GLUT4 at the cell surface of adipocytes; settings: <10% in the absence of insulin; cited from earlier work
[7] = 3T3-L1 preadipocytes and adipocytes
[8] = all days of 3T3-L1 differentiation, 80 nM insulin

Compound: CO[C@H]1C[C@@H]2CC[C@@H](C)[C@@](O)(O2)C(=O)C(=O)N2CCCC[C@H]2C(=O)O[C@H]([C@H](C)C[C@@H]2CC[C@@H](O)[C@H](OC)C2)CC(=O)[C@H](C)/C=C(\C)[C@@H](O)[C@@H](OC)C(=O)[C@H](C)C[C@H](C)/C=C/C=C/C=C/1C [rapamycin, reference compound]
- decrease in amount of GLUT4 reporter per cell (GFP fluorescence) ([1]; 3T3-L1 adipocytes, after rapamycin treatment, data not shown): ≤ 10%
- change in amount of GLUT4 reporter protein (GFP fluorescence) ([2]; CHO cells, after rapamycin treatment, data not shown): ≤ 10%

Compound: insulin
- subsequent decrease to steady-state, of peak response ([1]; 3T3-L1 adipocytes, FIG. 19A): ~20%
- peak response over basal ([1]; 3T3-L1 adipocytes, average of Day 8 and 10, FIG. 19A): 5.4 fold
- time at which steady-state level of cell surface GLUT4 is reached [1, 7]: about 15 minute
- time of peak plasma membrane GLUT4 after insulin addition [1, 7]: about 5 minute
- increase in plasma membrane GLUT4 ([1]; 3T3-L1 preadipocytes and adipocytes, peak after insulin addition): about 5 fold
- increase in cell-surface GLUT4 ([1]; 3T3-L1 preadipocytes, 5 minutes after insulin addition): fourfold
- fall of the fraction of GLUT4 on the plasma membrane after the peak [1, 8]: 20% to 40
- time of greatest proportion of GLUT4 on the plasma membrane after insulin addition [1, 8]: four to five
- time to steady-state after insulin addition [1, 8]: 15 to 20 min
- increase in the fraction of GLUT4 present at the plasma membrane ([1]; confluent 3T3-L1 preadipocytes cultured in 10% calf serum or 10% fetal bovine serum, 5 minutes): four-fold
- time at which steady-state level of cell surface GLUT4 is reached ([2]; CHO cells): about 15 minute
- time of peak plasma membrane GLUT4 after insulin addition ([2]; CHO cells): about 5 minute
- peak fraction of GLUT4 at the cell surface relative to unstimulated cells ([2]; CHO cells cultured in DMEM): 5.5 fold
- time of peak GLUT4 externalization after insulin addition ([2]; CHO cells cultured in DMEM): four to five
- time to steady-state after insulin addition ([2]; CHO cells cultured in DMEM): twenty
- part of the increase eliminated in the subsequent decrease ([2]; CHO cells cultured in DMEM, several experiments): 50% to 60
- overshoot of the final, steady-state proportion of GLUT4 at the cell surface ([2]; CHO cells cultured in F12 medium): no overshoot
- increase in plasma membrane GLUT4 ([2]; CHO cells, peak after insulin addition): about 5 fold
- shift of the population upward along the PE (myc) axis ([2]; confluent CHO cells expressing the GLUT4 reporter, FIG. 17F): ~5 fold
- increase in the proportion of GLUT4 at the cell surface [3]: twofold
- increases in the plasma membrane fraction (insulin/basal) ([4]; 3T3-L1 adipocytes, native GLUT4 and reporter protein, insulin 160 nM, 10 min, densitometry of several experiments): 5- to 10 fold
- time of peak response of GLUT4 reporter in the PM fraction after insulin addition ([4]; 3T3-L1 preadipocytes expressing the GLUT4 reporter): 8 min
- time of peak GLUT4 in the PM fraction after insulin addition ([4]; endogenous GLUT4, uninfected 3T3-L1 adipocytes, 480 nM insulin): 7 min
- insulin-stimulated translocation of the GLUT4 reporter [5]: minimal translocation
- overshoot of the steady-state response [5]: no overshoot
- proportion of GLUT4 at the cell surface in the presence of insulin [6]: 35-50%
